Experiments:
[1] = tested on: IAV A/PR/8/34; set-up: species or system C57BL/6 mice; details: mouse, in vivo
[2] = tested on: IAV A/PR/8/34; set-up: species or system C57BL/6 mice; details: mouse, in vivo; remark: listed apart in the source
[3] = tested on: A549 cells infected with IAV A/PR/8/34; assay type: cell-based, human
[4] = mouse, in vivo
[5] = tested on: IAV A/PR/8/34; assay type: cell-based, IAV A/PR/8/34 (H1N1)

Row | Compound | infectious virus load in lungs [1] | protection from IAV induced death, different concentrations [2] | protection from IAV-induced death at different pfu/mice [2] | infectious virus loads in lungs [1] | IL-6 release [3] | IL-8 release [3] | RANTES release [3] | IAV-induced death in mice [2] | side effect in uninfected mice (survival, weight) [4] | virus production in IAV-infected A549 cells [5]
1 | CC(C)c1ccc(Cn2ccc3c4c(N)nc(NC5CC5)nc4ccc32)cc1 [SCH79797] | significantly decreased infectious virus load | protected mice from IAV induced death in a dose-dependent manner | protected mice from IAV-induced death |  |  |  |  |  |  | 
2 | H-Thr-Phe-Leu-Leu-Arg-NH2 [TFLLR-NH2] |  |  |  | significantly increased infectious virus loads | significantly increased | significantly increased | significantly increased | increased IAV-induced death | not sensitive | produced more viruses

Source: patent publication US8802623B2 (priority 2009, dated 2014)
